According to ChEMBL document CHEMBL1137211, “Inhibitors of phenylethanolamine N-methyltransferase that are predicted to penetrate the blood-brain barrier: design, synthesis, and evaluation of 3-fluoromethyl-7-(N-substituted aminosulfonyl)-1,2,3,4-tetrahydroisoquinolines that possess low affinity toward the alpha2-adrenoceptor” (J Med Chem, 2004):

Molecular target: T1, Adrenergic receptor alpha-2 (Rattus norvegicus, UniProt P22086+P19328+P22909)
T1 sequence (P22086 whole entry): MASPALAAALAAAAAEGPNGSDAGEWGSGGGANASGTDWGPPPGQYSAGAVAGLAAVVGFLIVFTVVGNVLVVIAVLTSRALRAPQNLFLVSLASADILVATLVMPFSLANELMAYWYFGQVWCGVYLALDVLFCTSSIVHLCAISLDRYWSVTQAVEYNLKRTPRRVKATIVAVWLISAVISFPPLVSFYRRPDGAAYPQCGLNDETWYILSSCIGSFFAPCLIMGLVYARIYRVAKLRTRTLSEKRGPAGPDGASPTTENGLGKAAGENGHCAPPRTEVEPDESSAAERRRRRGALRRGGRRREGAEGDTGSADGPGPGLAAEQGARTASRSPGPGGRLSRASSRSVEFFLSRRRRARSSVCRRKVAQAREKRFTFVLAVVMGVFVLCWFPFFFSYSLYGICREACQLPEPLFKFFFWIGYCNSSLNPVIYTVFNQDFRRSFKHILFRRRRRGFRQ
T1 sequence (P19328 whole entry): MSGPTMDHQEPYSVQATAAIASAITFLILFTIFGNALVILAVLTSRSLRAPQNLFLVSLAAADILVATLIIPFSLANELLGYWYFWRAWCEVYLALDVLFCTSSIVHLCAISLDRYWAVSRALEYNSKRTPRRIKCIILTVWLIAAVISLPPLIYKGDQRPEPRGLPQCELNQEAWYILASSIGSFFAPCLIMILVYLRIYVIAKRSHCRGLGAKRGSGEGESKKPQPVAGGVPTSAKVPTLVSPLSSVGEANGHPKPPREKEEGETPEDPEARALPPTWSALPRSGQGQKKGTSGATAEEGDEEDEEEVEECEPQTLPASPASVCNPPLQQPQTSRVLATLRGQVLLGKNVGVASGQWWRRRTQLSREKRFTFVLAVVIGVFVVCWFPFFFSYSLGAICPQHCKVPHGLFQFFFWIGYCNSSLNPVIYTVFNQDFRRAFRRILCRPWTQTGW
T1 sequence (P22909 whole entry): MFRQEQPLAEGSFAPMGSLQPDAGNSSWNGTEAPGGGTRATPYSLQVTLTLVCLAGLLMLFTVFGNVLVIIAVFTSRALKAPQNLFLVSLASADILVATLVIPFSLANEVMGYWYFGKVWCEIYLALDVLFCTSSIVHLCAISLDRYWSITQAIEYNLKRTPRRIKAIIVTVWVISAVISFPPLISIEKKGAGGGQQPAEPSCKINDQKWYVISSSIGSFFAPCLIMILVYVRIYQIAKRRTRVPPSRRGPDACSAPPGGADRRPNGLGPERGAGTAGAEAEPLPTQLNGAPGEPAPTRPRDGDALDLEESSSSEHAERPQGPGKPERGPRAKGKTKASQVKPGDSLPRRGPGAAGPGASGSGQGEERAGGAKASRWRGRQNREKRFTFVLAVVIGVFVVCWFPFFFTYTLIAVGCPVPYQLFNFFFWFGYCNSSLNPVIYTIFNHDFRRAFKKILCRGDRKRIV
Assay: Inhibition of [3H]clonidine binding to rat Alpha2 adrenoceptor
Assay type: protein assay

| Compound | Ki |
| --- | --- |
| CCOCCCNS(=O)(=O)c1ccc2c(c1)CNC(CF)C2 (stereo not given) | 350 µM |
| CCCNS(=O)(=O)c1ccc2c(c1)CNC(CF)C2 (stereo not given) | 610 µM |
| O=S(=O)(Nc1ccc(Cl)cc1)c1ccc2c(c1)CNC(CF)C2 (stereo not given) | 140 µM |
| CCCCNS(=O)(=O)c1ccc2c(c1)CNC(CF)C2 (stereo not given) | 260 µM |
| O=S(=O)(Nc1ccc2ccccc2c1)c1ccc2c(c1)CNC(CF)C2 (stereo not given) | 12 µM |
| O=S(=O)(NCCCCc1ccccc1)c1ccc2c(c1)CNC(CF)C2 (stereo not given) | 6.8 µM |
| O=[N+]([O-])c1cccc(NS(=O)(=O)c2ccc3c(c2)CNC(CF)C3)c1 (stereo not given) | > 1000 µM |
| O=S(=O)(c1ccc2c(c1)CNC(CF)C2)N1CCCCC1 (stereo not given) | 820 µM |
| O=S(=O)(Nc1ccc(F)cc1)c1ccc2c(c1)CNC(CF)C2 (stereo not given) | 86 µM |
| CCNS(=O)(=O)c1ccc2c(c1)CNC(CF)C2 (stereo not given) | 550 µM |
| CC(C)NS(=O)(=O)c1ccc2c(c1)CNC(CF)C2 (stereo not given) | 580 µM |
| O=S(=O)(NC1CCc2ccccc2C1)c1ccc2c(c1)CNC(CF)C2 (stereo not given) | 1.3 µM |
| CCOCCNS(=O)(=O)c1ccc2c(c1)CNC(CF)C2 (stereo not given) | 440 µM |
| O=S(=O)(NCCc1ccccc1)c1ccc2c(c1)CNC(CF)C2 (stereo not given) | 58 µM |
| O=S(=O)(c1ccc2c(c1)CNC(CF)C2)N1CCOCC1 (stereo not given) | 2100 µM |
| O=S(=O)(NCC(F)(F)F)c1ccc2c(c1)CNC(CF)C2 (stereo not given) | 1200 µM |
| COCCNS(=O)(=O)c1ccc2c(c1)CNC(CF)C2 (stereo not given) | 430 µM |
| O=S(=O)(NCCC(F)(F)F)c1ccc2c(c1)CNC(CF)C2 (stereo not given) | 660 µM |
| COCCCNS(=O)(=O)c1ccc2c(c1)CNC(CF)C2 (stereo not given) | 750 µM |
| O=S(=O)(NC12CC3CC(CC(C3)C1)C2)c1ccc2c(c1)CNC(CF)C2 (stereo not given) | 100 µM |
| O=S(=O)(Nc1cccc(Cl)c1)c1ccc2c(c1)CNC(CF)C2 (stereo not given) | > 1000 µM |
| Clc1ccc2c(c1Cl)CNCC2 | 0.02 µM |
| O=S(=O)(Nc1ccc(O)cc1)c1ccc2c(c1)CNC(CF)C2 (stereo not given) | 280 µM |
| O=[N+]([O-])c1ccc(NS(=O)(=O)c2ccc3c(c2)CNC(CF)C3)cc1 (stereo not given) | > 1000 µM |
| O=S(=O)(NCCCC(F)(F)F)c1ccc2c(c1)CNC(CF)C2 (stereo not given) | 350 µM |
| O=S(=O)(c1ccc2c(c1)CNC(CF)C2)N1CCSCC1 (stereo not given) | 190 µM |

Species: Homo sapiens
Assay: Ratio of Ki for alpha-2-adrenoceptor to that of PNMT was determined

| Compound | Selectivity |
| --- | --- |
| O=[N+]([O-])c1cccc(NS(=O)(=O)c2ccc3c(c2)CNC(CF)C3)c1 (stereo not given) | > 4 |
| O=S(=O)(Nc1cccc(Cl)c1)c1ccc2c(c1)CNC(CF)C2 (stereo not given) | > 1.1 |

Molecular target: T2, Phenylethanolamine N-methyltransferase (Homo sapiens, UniProt P11086)
T2 sequence (P11086 whole entry): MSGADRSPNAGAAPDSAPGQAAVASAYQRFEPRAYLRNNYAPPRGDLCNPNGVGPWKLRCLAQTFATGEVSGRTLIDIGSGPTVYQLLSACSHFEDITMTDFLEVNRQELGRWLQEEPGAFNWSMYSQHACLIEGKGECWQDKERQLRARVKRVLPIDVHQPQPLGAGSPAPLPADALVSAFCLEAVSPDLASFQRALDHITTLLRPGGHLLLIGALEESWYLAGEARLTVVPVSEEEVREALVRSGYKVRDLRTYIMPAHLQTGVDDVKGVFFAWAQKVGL
Assay: not given

| Compound | Ki |
| --- | --- |
| O=[N+]([O-])c1cccc(NS(=O)(=O)c2ccc3c(c2)CNC(CF)C3)c1 (stereo not given) | 250 µM |
| O=S(=O)(Nc1cccc(Cl)c1)c1ccc2c(c1)CNC(CF)C2 (stereo not given) | 890 µM |
